Entries after “also recorded” stand apart in the source; their conditions may differ.
How the values were obtained:
[1] = test system: Stat3 transcriptional activity; experiment: Stat3 luciferase reporter assay with transfected TEL or TEL mutants; assay type: cell-based
Experimental: In brief, TEL- or control, pcDNA3.1-transfected Stat3ERA375 cells, treated with 4HT were cultured in the presence or absence of Trichostatin A (TSA; 250 nM), a general HDAC inhibitor, essentially as described above.
Briefly, Stat3-ER-A375 cells and HEK 293 cells were transfected with the different TEL mutants, a Stat3 reporter plasmid and a Renilla plasmid.

[2] = test system: Stat3; experiment: TEL-Stat3 interaction, immunoprecipitation from nuclear extracts; assay type: binding
Experimental: Since the TEL DNA-binding domain is not required for repression of Stat3 activity, this Example tests the possibility that TEL interacts directly with Stat3. Extracts from nuclear-enriched fractions were prepared from control or OSM-stimulated A375 cells. […] Endogenous TEL was present in Stat3 immunoprecipitates and the levels of TEL associating with Stat3 increased in OSM-treated compared to control-treated nuclear extracts. Conversely, Stat3 is present in a TEL-containing complex, pulled down through an immobilized GGM-containing oligonucleotide, which is a binding site for TEL.

[3] = molecular target: Signal transducer and activator of transcription 3 (Stat3) (UniProt P40763); experiment: cell-based or functional assay
Chain of Signal transducer and activator of transcription 3 (Stat3) (P40763 2-770 limits assumed): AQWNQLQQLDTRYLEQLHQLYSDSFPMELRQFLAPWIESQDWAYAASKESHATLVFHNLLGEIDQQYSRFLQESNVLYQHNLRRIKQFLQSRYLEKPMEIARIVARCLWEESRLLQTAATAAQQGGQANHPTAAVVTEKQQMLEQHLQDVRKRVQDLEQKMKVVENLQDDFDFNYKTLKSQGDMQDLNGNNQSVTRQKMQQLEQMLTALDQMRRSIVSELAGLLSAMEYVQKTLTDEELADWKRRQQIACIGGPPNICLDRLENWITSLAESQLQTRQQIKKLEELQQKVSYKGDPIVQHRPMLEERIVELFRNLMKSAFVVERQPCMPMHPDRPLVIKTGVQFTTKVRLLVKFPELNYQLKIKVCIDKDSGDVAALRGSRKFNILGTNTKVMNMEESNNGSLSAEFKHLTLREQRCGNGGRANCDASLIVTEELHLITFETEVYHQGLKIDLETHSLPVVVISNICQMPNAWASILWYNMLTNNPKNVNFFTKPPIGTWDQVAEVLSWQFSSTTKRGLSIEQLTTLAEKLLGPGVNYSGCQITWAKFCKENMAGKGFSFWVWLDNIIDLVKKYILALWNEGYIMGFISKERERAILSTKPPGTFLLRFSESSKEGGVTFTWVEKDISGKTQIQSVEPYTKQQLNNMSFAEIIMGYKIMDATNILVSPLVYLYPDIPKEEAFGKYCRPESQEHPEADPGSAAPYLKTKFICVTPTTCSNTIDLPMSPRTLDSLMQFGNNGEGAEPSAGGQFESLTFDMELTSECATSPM

[4] = test system: Stat3-ER-expressing A375 cells; experiment: Cell proliferation after siRNA transfection; assay type: cell-based
Source text: This Example follows cell proliferation of Stat3-ER-expressing A375 cells treated with 4HT or a combination of 4HT and OSM, then cell proliferation in the absence or in the presence of siRNA to C/EBPd.
The following 21-mer oligoribonucleotide pairs were used:
This Example follows cell proliferation of Stat3-ER-expressing A375 cells treated with 4HT or a combination of 4HT and OSM, and in the absence or in the presence of siRNA to TEL.

[5] = test system: C/EBPdelta mRNA; experiment: C/EBPdelta expression (quantitative PCR); assay type: cell-based
Experimental: A LacZ siRNA was used as control. The designed RNA oligonucleotides were ‘blasted’ against the GENBANK/EMBL databank to ensure gene specificity. The RNA oligonucleotides were obtained commercially. Transfection with expression vectors was carried out 1 day after the siRNA transfection using Effectene.

[6] = test system: Stat3 transcriptional activity; experiment: APRE-driven luciferase reporter assay; assay type: cell-based; conditions: for Stat3-dependent transcription of luciferase, increase over control: TEL expression reduced by siRNA
Source text: Luciferase assays are used to verify that the Stat3-ER construct is transcriptionally active. For this purpose, a luciferase reporter gene driven by the acute-phase response element (APRE) of the alpha 2-macroglobulin gene, a target for Stat1 and Stat3, was used.
Cells (2×10^6 cells/6 well dish) were transfected with a reporter plasmid containing four copies of acute phase responsible element (APRE) upstream of the minimal junB promoter linked to the luciferase gene (T Hirano, EMBO Journal, 1996, 15, 3651-3658), together with the internal control plasmid pRL-SV40 from Promega (Madison, Wis.). Twenty-four hours after the transfection, cells were either left unstimulated or stimulated with OSM (PeproTechEC, London, United Kingdom), 4-hydroxytamoxifen (4HT; Sigma, St. Louis, Mo.) or a combination of 4HT/OSM for 24 hours. The preparation of cell extracts and measurement of luciferase activities were carried out using the Dual-Luciferase reporter assay system from Promega (Madison, Wis.) in an Autolumat LB 953 (Berthold Technologies, Wildbad, Germany). Changes in firefly luciferase activity were expressed relative to Renilla luciferase activity in the same sample.

[7] = test system: TEL; experiment: TEL protein level by Western blotting; assay type: cell-based; conditions: 4HT or 4HT/OSM treated; relative to control LacZ siRNA
Experimental: Protein analysis was carried out by Western blotting. In brief, cells were harvested in NP40 extraction buffer (50 mM Tris (pH 7.5), 1 mM EGTA, 5 mM EDTA, 120 mM NaCl, 1% NP40, 2 mM sodium orthovanadate, 50 mM sodium fluoride, 20 mM ? -glycerophosphate, 10 μg/ml leupeptin, 10 μg/ml aprotinin, and 0.5 mM phenylmethylsulfonyl fluoride) for 5 min on ice. The lysates were clarified by centrifugation and protein concentrations were determined using the Bio-Rad protein assay reagent (Bio-Rad Laboratories Gmbh, Munich, Germany). For immunoprecipitaton, equal amounts of proteins were incubated with Stat3 (C-20) from Santa Cruz Biotechnology (Santa Cruz, Calif.) for 1 hr. Following SDS-polyacrylamide gel eletrophoresis (SDS-PAGE), proteins were blotted onto polyvinylidene difluoride membranes (Boehringer Mannheim, Mannheim, Germany). After blocking with 10% horse serum (Life Technologies, Inc.) in 50 mM Tris pH 7.5, 150 mM NaCl, 0.05% Tween 20, filters were probed with specific antibodies; c-TEL, Stat3 (C-20) from Santa Cruz Biotechnology (Santa Cruz, Calif.), phospho-Stat3 (Tyr 705) from Cell Signaling Technology (Beverly, Mass.). Proteins were visualized with peroxidase-coupled secondary antibodies using the enhanced chemiluminescence detection system (Amersham Pharmacia Biotech, Little Chalfont, United Kingdom).

[8] = test system: TEL; experiment: TEL expression in human cancer cell lines; assay type: cell-based
Source text: TEL is usually expressed as two protein isoforms corresponding to initiation of TEL mRNA translation at ATG codon 1 and 43 (TEL and TEL43). […] To ascertain if TEL is a natural target of Stat3, we examined its expression in human cancer cell lines in response to OSM or IL-6. […] However, TEL expression was unchanged in other cell lines, including the prostate cancer cells PC3 and LNCaP and MDA-MB-468 breast cancer cells, even though it was expected that Stat3 is activated in each of these cell lines by IL-6/OSM treatment.

**Q.** How did the “effect on repression of Stat3 activity by TEL” value ([1]; TSA 250 nM, TEL-transfected 4HT-stimulated Stat3ERA375 cells) turn out when `CC(/C=C/C(=O)NO)=C\[C@@H](C)C(=O)c1ccc(N(C)C)cc1` [TSA, Trichostatin A, reference compound] was run?
**A.** Its value is “prevented the repression of Stat3 activity by TEL”.

**Q.** What about the “effect on Stat3 mediated transcriptional activity” value ([1]; TSA 250 nM, pcDNA3.1-transfected cells, 4HT) of the same molecule?
**A.** Its value is “had no effects”.

**Q.** How did the “reduction in Stat3 activity by overexpression of TEL” value ([1]; in response to OSM, Stat3ER A375 cells and HEK293 cells) turn out when “TEL: ets variant gene 6 (TEL oncogene) product, overexpressed by transfection” was run?
**A.** Its value is over 70%.

**Q.** And the “interaction with Stat3” value [2]?
**A.** The value was “still interact with Stat3”.

**Q.** “TEL/Etv6 (ets variant gene 6; TEL oncogene) (from UniProt P41212 1-452)” was tested. Which Stat3 activity (APRE luciferase reporter) in response to OSM on overexpression of TEL [3] did it give?
**A.** The Stat3 activity (APRE luciferase reporter) in response to OSM on overexpression of TEL was over 70 % reduction.

**Q.** What does the source list for “C/EBPdelta siRNA: siRNA duplex nt 844-864, SEQ ID NO:2 and SEQ ID NO:3 (chain 1 GCAGCUGCCCAGCCCGCCCTT; chain 2 GGGCGGGCUGGGCAGCUGTT; combined DNA/RNA strands, DNA positions not given here, further chemistry not given here)”?
**A.** inhibition of cell proliferation in the presence of siRNA ([4]; about 40-45% with control siRNA): about 25%; reduction of the inhibition of A375 cell proliferation ([4]; average of three independent experiments, versus control siRNA): about 40%; C/EBPdelta expression in the presence of siRNA [5]: significantly reduced expression

**Q.** “TEL siRNA: siRNA nt 540-560, SEQ ID NO:4 and SEQ ID NO:5 (chain 1 CCCUCCCACCAUUGAACUGTT; chain 2 CAGUUCAAUGGUGGGAGGGTT; combined DNA/RNA strands, DNA positions not given here, further chemistry not given here)” was tested. Which “Stat3-dependent transcription of luciferase, increase over control” value ([6]; induced by 4HT) did it give?
**A.** The value was about 16 fold.

**Q.** And the “Stat3-dependent transcription of luciferase, increase over control” value ([6]; induced by OSM)?
**A.** Its value is about 18 fold.

**Q.** And the “anti-proliferative effects of Stat3 versus control LacZ siRNA treated cultures” value ([4]; 4HT and OSM treated Stat3ER A375 cells)?
**A.** The value was “stronger”.

**Q.** And the “Stat3-mediated inhibition of A375 cell proliferation in the presence of TEL siRNA” value ([4]; about 28% without TEL siRNA)?
**A.** Its value is “about 40%”.

**Q.** And the “TEL expression in the presence of TEL siRNA” value [7]?
**A.** Its value is “largely prevented; also recorded: strongly decreased”.

**Q.** For interleukin 6 [IL-6], which “cooperative effect with 4HT on luciferase activity” value ([6]; Stat3-ER-expressing A375 cells) is on record?
**A.** Its value is “same cooperative effect with 4HT”.

**Q.** And the TEL expression ([8]; PC3, LNCaP prostate cancer cells and MDA-MB-468 breast cancer cells)?
**A.** The TEL expression was “unchanged”.

**Q.** What about the TEL expression ([8]; T47D and SKBr-3 breast cancer cells, DU145 prostate carcinoma cells, HepG2 hepatoma-derived cells) of the same molecule?
**A.** The TEL expression was “significantly increased”.

B1: TEL delta 442-452: TEL deletion mutant (protein)
chain: MSETPAQCSIKQERISYTPPESPVPSYASSTPLHVPVPRALRMEEDSIRLPAHLRLQPIYWSRDDVAQWLKWAENEFSLRPIDSNTFEMNGKALLLLTKEDFRYRSPHSGDVLYELLQHILKQRKPRILFSPFFHPGNSIHTQPEVILHQNHEEDNCVQRTPRPSVDNVHHNPPTIELLHRSRSPITTNHRPSPDPEQRPLRSPLDNMIRRLSPAERAQGPRPHQENNHQESYPLSVSPMENNHCPASSESHPKPSSPRQESTRVIQLMPSPIMHPLILNPRHSVDFKQSRLSEDGLHREGKPINLSHREDLAYMNHIMVSVSPPEEHAMPIGRIADCRLLWDYVYQLLSDSRYENFIRWEDKESKIFRIVDPNGLARLWGNHKNRTNMTYEKMSRALRHYYKLNIIRKEPGQRLLFRFMKTPDEIMSGRTDRLEHLESQE
**Q.** With B1 as the molecule, how does the “repression of 4HT- or OSM-induced Stat3 transcriptional activity” value ([1]; Stat3-ER-A375 cells and HEK 293 cells, 24 h) read?
**A.** Its value is “is not able to repress Stat3 activity”.

From patent US20080064027A1, “TEL/Etv6-mediated inhibition of cell proliferation” (priority 2002, published 2008)
